This note sets out measurements from patent US20130225548A1, “Pyridine Derivative and Medicinal Agent” (NIPPON SHINYAKU CO., LTD., priority 2010, published 2013).

Counter-ions that a name gives are not always drawn.

The target of this assay is T1, Syk tyrosine kinase (Homo sapiens, UniProt P43405).
T1 construct: purchased Carna Biosciences, Inc
The experiment in a line: Test for Syk tyrosine kinase inhibitory activity (ELISA). The settings on record: Syk tyrosine kinase (Carna Biosciences), 25 μM ATP in substrate solution, 30° C. 1 hour, n=2; read-out: Evaluation (IC50, concentration inhibiting the tyrosine kinase activity at 50%). The assay is classed as biochemical. The protocol: Test Example 1: Test for Syk Tyrosine Kinase Inhibitory Activity
1. Preparation of Test Substance
A test substance was prepared at 10 mM in dimethyl sulfoxide (DMSO), and further diluted with DMSO to concentrations of 1000, 300, 100, 30, 10, 3, 1, 0.3, 0.1, 0.03, and 0.01 μM. The resulting solutions were further diluted to 20-fold with an assay buffer, whereby test substance solutions were prepared. As a negative control, a solution obtained by diluting DMSO to 20-fold with an assay buffer was used. As the assay buffer, a buffer containing 15 mM Tris-HCl (pH 7.5), 0.01 (v/v) % Tween-20, and 1 mM dithiothreitol was used.
2. Measurement of Syk Tyrosine Kinase Inhibitory Activity
The activity was measured using the ELISA method. Each of the test substance solutions was added to a streptavidine-coated 96-well place (DELFIA Strip Plate 8×12 wells, PerkinElmer Co., Ltd,) at 10 μL per well (n=2), and a substrate solution (625 nM biotinylated peptide substrate, 25 μM ATP, 25 mM MgCl2, 15 mM Tris-HCl (pH 7.5), 0.01 (v/v) % Tween-20, 1 mM dithiothreitol) was added to the plate at 20 μL per well, and the resulting mixture was stirred. Finally, Syk tyrosine kinase (Carna Biosciences, Inc.) (previously diluted to 0.025 nM with the assay buffer) was added to the plate at 20 μL per well, and the resulting mixture was stirred. A reaction was allowed to proceed at 30° C. for 1 hour. After the plate was washed 4 times with a washing buffer (50 mM Tris-HCl (pH 7.5, 150 mM NaCl, 0.02 (v/v) % Tween-20), a blocking buffer (0.1% bovine serum albumin, 50 mM Tris-HCl (pH 7.5), 150 mM NaCl, 0.02 (v/v) % Tween-20) was added to the plate at 150 μL per well, and blocking was performed at 30° C. for 30 minutes. Then, the blocking buffer was removed, and a horseradish peroxidase-labeled anti-phosphorylated tyrosine antibody (BD Biosciences, Inc.) (previously diluted to 10000-fold with the blocking buffer) was added to the plate at 100 μL per well, and the plate was incubated at 30° C. for 30 minutes. After the plate was washed 4 times with the washing buffer, a 3,3′,5,5′-tetramethylbenzidine solution (Sigma-Aldrich Co., Ltd.) was added to the plate at 100 μL per well to develop the color for 10 minutes. The reaction was stopped by adding 0.1 M sulfuric acid at 100 μL per well. The absorbance at 450 nm was measured using a microplate reader (Multiskan F C, Thermo Fisher Scientific K,K.).
3. Analysis of Measurement Results
A non-linear regression analysis was performed for the measured absorbance using the SAS system (SAS institute. Inc.), and a concentration of each of the test substances: inhibiting the tyrosine kinase activity at 50% (IC50 ) was calculated. A case where IC50 is […] was evaluated as ***, a case where IC50 is 5 nM or more and less than 50 nM was evaluated as **, and a case where IC50 is 50 nM or more and less than 500 nM was evaluated as *, which are shown in the column of evaluation item.
On the technique in general: ELISA stands for enzyme-linked immunosorbent assay.
For the compound `N#Cc1ccnc(Nc2cc(C3CC3)cc(-c3ccc(N4CCC[C@H]4C(N)=O)nc3)n2)c1` [Example 40, (S)-1-{6-[(4-cyanopyridin-2-yl)amino]-4-cyclopropyl-2,3′-bipyridin-6′-yl}pyrrolidine-2-carboxamide hydrochloride], the IC50 lay within 50 to 500 nM. As for `CN(C)C(C)(C)COc1cncc(-c2cc(C3CC3)cc(Nc3cc(C#N)ccn3)n2)c1` [Example 108, 2-({4-cyclopropyl-5′-[2-(dimethylamino)-2-methylpropoxy]-2,3′-bipyridin-6-yl}amine)pyridine-4-carbonitrile hydrochloride], the figure is 50 to 500 nM; as for `N#Cc1ccnc(Nc2cc(C3CC3)cc(-c3cncc(CN4CCCN(C(N)=O)CC4)c3)n2)c1` [Example 75, 4-({6-[(4-cyanopyridin-2-yl)amino]-4-cyclopropyl-2,3′-bipyridin-5′yl}methyl)-1,4-diazepane-1-carboxamide hydrochloride], 5 to 50 nM; as for `N#Cc1ccnc(Nc2cc(C3CC3)cc(-c3ccc(N4CCC(CO)CC4)nc3)n2)c1` [Example 26, 2-({4-cyclopropyl-6′-[4-(hydroxymethyl)piperidin-1yl]-2,3′-bipyridin-6-yl}amino)pyridine-4-carbonitrile hydrochloride], 5 to 50 nM. Turning to `COCCNc1ccc(-c2cc(C3CC3)cc(Nc3cc(C#N)ccn3)n2)cn1` [Example 21, 2-({4-cyclopropyl-6′-[(2-methoxyethyl)amino]-2,3′-bipyridin-6-yl}amino)pyridine-4-carbonitrile hydrochloride], the IC50 lay within 5 to 50 nM.

On to `N#Cc1ccnc(Nc2cc(C3CC3)cc(-c3ccc4c(c3)ncn4CCO)n2)c1` [Example 147, 2-({4-cyclopropyl-6-[1-(2-hydroxyethyl)-1H-benzimidazol-5-yl]pyridin-2-yl}amino)pyridine-4-carbonitrile hydrochloride], for which the IC50 was 50 to 500 nM.

For `COCCn1cnc2cc(-c3cc(C4CC4)cc(Nc4cc(C#N)ccn4)n3)ccc21` [Example 148, hydrochloride], the IC50 was in the range of 50 to 500 nM. Under `CC(=O)N1CCN(c2ccc(-c3cc(C4CC4)cc(Nc4cc(C#N)ccn4)n3)cn2)CC1` [Example 59, 2-{[6′-(4-acetylpiperazin-1-yl)-4-cyclopropyl-2,3′-bipyridin-6-yl]amino}pyridine-4-carbonitrile hydrochloride] stands 5 to 50 nM; under `CC(=O)N1CCN(Cc2cncc(-c3cc(C4CC4)cc(Nc4cc(C#N)ccn4)n3)c2)CC1` [Example 82, 2-({5′-[(4-acetylpiperazin-1-yl)methyl]-4-cyclopropyl-2,3′-bipyridin-6-yl}amino)pyridine-4-carbonitrile hydrochloride], 50 to 500 nM; under `CC(=O)O[C@@H]1CCC[C@H]1n1cnc2ccc(-c3cc(C4CC4)cc(Nc4cc(C#N)ccn4)n3)cc21` (relative stereo) [Example 141, trans-2-(6-{6-[(4-cyanopyridin-2-yl)amino]-4-cyclopropylpyridin-2-yl}-1H-benzimidazol-1-yl)cyclopentyl acetate hydrochloride], 50 to 500 nM. As for `N#Cc1ccnc(Nc2cc(C3CC3)cc(-c3ccc(CN4CCNC(=O)C4)nc3)n2)c1` [Example 70, 2-({4-cyclopropyl-6′-[(3-oxopiperazin-1-yl)methyl]-2,3′-bipyridin-6-yl}amino)pyridine-4-carbonitrile hydrochloride], the figure is 50 to 500 nM; as for `Cn1cnc2ccc(-c3cc(C4CC4)cc(Nc4cc(C#N)ccn4)n3)cc21` [Example 153, 2-{[4-cyclopropyl-6-(1-methyl-1H-benzimidazol-6-yl)pyridin-2-yl]amino}pyridine-4-carbonitrile hydrochloride], 5 to 50 nM. As for `N#Cc1ccnc(Nc2cc(C3CC3)cc(-c3cncc(NCC4CCNCC4)c3)n2)c1` [Example 94, 2-({4-cyclopropyl-5′-[(piperidin-4-ylmethyl)amino]-2,3′-bipyridin-6-yl}amino)pyridine-4-carbonitrile hydrochloride], the figure is 5 to 50 nM.
